In patent US20090118135A1, “METHODS AND COMPOUNDS FOR REGULATING APOPTOSIS” (The Burnham Institute, priority 2007, published 2009):
Several values for one entry are separate records, joined by “and”; a condition that tells them apart may be missing. Equal entries are not always repeated. Where two headings read alike, the source gives them in different places. Where no end group is shown, it is not given here. [ ]: non-standard residue; d: D form. The star is where a group is joined. FITC = O=C1OC2(c3ccc(O)cc3Oc3cc(O)ccc32)c2ccc(NC(=S)*)cc21; Ahx = NCCCCCC(=O)O

Columns and labels:
GST-Hsp70 = GST-Hsp70 (Homo sapiens, UniProt P0DMV8); assay: FITC-ATP/GST-Hsp70 fluorescence polarization counter-screen; assay type: binding; settings: HSP/FITC-ATP counter screen
Sequence of GST-Hsp70 (P0DMV8 whole entry): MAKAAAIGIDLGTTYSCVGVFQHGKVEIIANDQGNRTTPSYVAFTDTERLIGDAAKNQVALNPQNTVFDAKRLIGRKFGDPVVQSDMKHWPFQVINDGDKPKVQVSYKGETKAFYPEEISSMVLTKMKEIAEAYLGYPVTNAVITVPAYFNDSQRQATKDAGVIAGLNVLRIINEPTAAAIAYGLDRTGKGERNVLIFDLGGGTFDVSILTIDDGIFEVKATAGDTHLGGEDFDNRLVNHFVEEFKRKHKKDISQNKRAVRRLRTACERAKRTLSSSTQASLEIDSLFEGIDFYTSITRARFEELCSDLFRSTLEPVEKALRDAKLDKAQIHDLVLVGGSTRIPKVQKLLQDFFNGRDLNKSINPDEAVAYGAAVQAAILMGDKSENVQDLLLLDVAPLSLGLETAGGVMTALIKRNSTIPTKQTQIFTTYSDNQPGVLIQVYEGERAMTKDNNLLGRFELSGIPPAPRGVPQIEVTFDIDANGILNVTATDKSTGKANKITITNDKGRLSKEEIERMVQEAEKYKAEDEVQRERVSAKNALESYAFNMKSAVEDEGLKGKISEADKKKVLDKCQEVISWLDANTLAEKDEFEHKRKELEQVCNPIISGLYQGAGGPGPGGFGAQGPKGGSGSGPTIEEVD
Description: Dose-response curves were then generated (fluorescent compounds were eliminated), followed by counter-screening using a biologically unrelated FPA (GST-Hsp70/FITC-ATP).
A number of assays were then performed to eliminate non-specific or irreproducible hits (FIG. 21). […] Second, compound dose-response curves were generated using the fluorescence polarization assay. […] Finally, 1D-NMR was used to test the compounds for binding to GST-Bcl-B versus GST (as a negative control) (FIG. 22).

GST-Bcl-B [1] = target: T1, GST-Bcl-B (Homo sapiens, UniProt Q9HD36); assay: biochemical
T1 sequence (Q9HD36 1-182 limits assumed): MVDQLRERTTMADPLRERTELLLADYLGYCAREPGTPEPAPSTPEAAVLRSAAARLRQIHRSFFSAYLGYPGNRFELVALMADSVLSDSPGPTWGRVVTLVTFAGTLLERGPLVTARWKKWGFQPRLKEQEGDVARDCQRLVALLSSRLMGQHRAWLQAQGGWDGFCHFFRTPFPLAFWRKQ

GST-Bcl-2 = GST-Bcl-2 (Homo sapiens, UniProt P10415); assay: Bcl-2/FITC-TR3 fluorescence polarization competition assay (PBS + Tween-20); settings: Hill coefficient of Bcl-2 dose-response curve
Sequence of GST-Bcl-2 (P10415 1-218 limits assumed): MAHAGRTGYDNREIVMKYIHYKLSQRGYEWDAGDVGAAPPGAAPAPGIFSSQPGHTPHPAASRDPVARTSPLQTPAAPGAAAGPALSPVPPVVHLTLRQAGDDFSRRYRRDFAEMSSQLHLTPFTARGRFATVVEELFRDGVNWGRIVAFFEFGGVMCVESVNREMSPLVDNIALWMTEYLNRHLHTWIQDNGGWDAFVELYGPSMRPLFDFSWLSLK

GST-Bcl-B [2] = target: T1, GST-Bcl-B; assay: Bcl-B/FITC-TR3-r8 fluorescence polarization competition (displacement) assay, HTS and dose-response; settings: for Bcl-B H Coefficient: Hill coefficient of Bcl-B dose-response curve
GST = target: T2, GST (Schistosoma japonicum, UniProt P08515); assay: 1D 1H-NMR compound binding, GST negative control; settings: negative control protein; result in words
T2 construct: made in house; host or cells: Escherichia coli BL21 Star (DE3), pGEX-4T-1
T2 sequence (P08515 whole entry): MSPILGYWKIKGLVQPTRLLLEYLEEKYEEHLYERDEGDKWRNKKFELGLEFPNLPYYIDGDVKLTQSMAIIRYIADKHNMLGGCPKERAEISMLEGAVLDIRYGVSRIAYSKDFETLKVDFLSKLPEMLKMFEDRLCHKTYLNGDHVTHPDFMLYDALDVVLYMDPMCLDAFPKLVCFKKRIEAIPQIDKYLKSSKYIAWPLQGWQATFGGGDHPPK
Description: (§1) FIGS. 22A-22F are line graphs showing a ^1H-NMR spectra confirmation of compound binding to Bcl-B. Compounds 5804000, 5954623, and 2011727 were diluted in PBS/D2O buffer to 1000 μM, then incubated with either GST (FIGS. 22A, C, E) or GST-Bcl-B (FIGS. 22B, D, F) at 0, 10 or 20 μM concentrations. FIGS. 22A-B show compound 5804000; FIGS. 22C-D show compound 5954623; and FIGS. 22E-F show the NMR spectra for the negative control compound 2011727. The most prominent peak shift for each compound is shown.
(§2) NMR experiments were performed at 25° C. on a 500 MHz Bruker Avance spectrometer (Bruker, Madison, Wis.) equipped with a 5 mm TXI probe. […] Reference solutions were then used in titration experiments with GST-Bcl-B or GST. All ^1H NMR spectra were obtained with the carrier position set to the water peak signal using WATERGATE. NMR data were processed and analyzed with MestRe Nova (MestReLab Research, Santiago de Compostela, Spain).

GST-Bcl-B [3] = target: T1, GST-Bcl-B; assay: FITC-Puma-BH3/GST-Bcl-B fluorescence polarization displacement assay; assay type: binding; design: their C-terminal transmembrane domains (˜20 amino acids) were deleted to enhance protein solubility; made in house; host or cells: E. coli (BL21 Star (DE3); XL-1 Blue), pGEX-4T-1; settings: FIG. 23C; result in words
GST-Bcl-B [4] = target: T1, GST-Bcl-B; assay: FITC-Bim-BH3/GST-Bcl-B fluorescence polarization displacement assay; assay type: binding; design: their C-terminal transmembrane domains (˜20 amino acids) were deleted to enhance protein solubility; made in house; host or cells: E. coli (BL21 Star (DE3); XL-1 Blue), pGEX-4T-1; settings: FIG. 23D; result in words
GST-Bcl-B [5] = target: T1, GST-Bcl-B; assay: 1D 1H-NMR compound binding, GST-Bcl-B; design: their C-terminal transmembrane domains (˜20 amino acids) were deleted to enhance protein solubility; made in house; host or cells: E. coli (BL21 Star (DE3); XL-1 Blue), pGEX-4T-1; settings: result in words
Description: as §1, §2

[6] = tested on: HeLa Tet-On-Bcl-B (HTO2) cells; assay: Cell viability (ATPlite) in HeLa Tet-On-Bcl-B cells with or without doxycycline; assay type: cell-based; settings: 24 h, read-out: concentration required to reduce HeLa Tet-On-Bcl-B cell viability by 50%
Description: FIG. 24A is a photograph of a blot wherein HeLa Tet-On (HTO1) and HeLa Tet-On-Bcl-B (HTO2) cells were treated with or without doxycycline (dox) for 24 h to induce their tetracycline-responsive promoters. Protein lysates were collected, and immunoblotting was used to analyze Bcl-B and Hsc70 (for loading control) expression. In FIG. 24B the cells were treated with or without doxycycline for 24 h, and then with staurosporine at the indicated concentrations for 24 h. Cell viability was measured using ATPlite. In FIG. 24C HeLa Tet-On-Bcl-B (HTO2) cells were treated with or without doxacycline as above. Compounds were then added at the indicated concentrations, and cell viability was measured 24 h later using ATPlite. The data shown represent mean±standard deviation (n=3).
HeLa Tet-On-Bcl-B cells were generated by stably transfecting the HeLa Tet-On cell line (Clontech, Mountain View, Calif.) with a pTRE2hyg vector (Clontech) containing the Bcl-B gene, using lipofectAMINE PLUS (Invitrogen, Carlsbad, Calif.). Briefly, cells were seeded overnight and transfected at 50% confluency for 3 h. After 24 h, the cells were re-seeded at <10% confluence and cultured in media (DMEM with 10% Tet System Approved FBS (Clontech)) containing G418 (100 μg/mL) and hygromycin B (300 μg/mL) for pTet-On and pTRE2hyg/Bcl-B plasmid maintenance, respectively. Positive foci resistant to both antibiotics were expanded. Colonies were then cultured in the presence or absence of doxycycline (Clontech, 1 μg/mL) for 16 h, and induced Bcl-B expression was confirmed by Western blot analysis. A previously developed polyclonal Bcl-B antibody^17 and an Hsc70 antibody (for protein concentration comparison; Santa Cruz Biotechnology, Santa Cruz, Calif.) were used.
Cells were seeded in 96-well plates at 5,000 cells/well in 100 μL of growth medium and allowed to incubate for 24 h. Afterwards, cells were incubated in the presence or absence of doxycycline (1 μg/mL) for another 24 h (to induce Bcl-B expression). Compounds were then added, as indicated, in a volume of 5 μL. The next day, cell viability was measured using the ATPlite Luminescence ATP Detection System (PerkinElmer, Waltham, Mass.) according to the manufacturer's specifications.

[7] = target: GST-Bcl-B ΔTM [GST: P08515]; assay: fluorescence polarization binding curves
[8] = target: GST-Bcl-2 ΔTM [GST: P08515]; assay: fluorescence polarization, direct binding to GST-Bcl-2
[9] = target: GST-Bcl-B ΔTM [GST: P08515]; assay: fluorescence polarization, 20 nM FITC-TR3-r8 with increasing GST-Bcl-B
[10] = target: GST-Bcl-B ΔTM [GST: P08515]; assay: fluorescence polarization, 20 nM FITC-TR3-r8 with increasing GST-Bcl-B, HEPES/β-glycerophosphate buffer
[11] = target: GST-Bfl-1 ΔTM [GST: P08515]; assay: Bfl-1 FPA plate, well B12: FITC-BH3 and GST-Bfl-1 without compound
[12] = target: GST-Bfl-1 ΔTM [GST: P08515]; assay: Bfl-1 FPA plate, well C12: FITC-BH3 and GST-Bfl-1 without compound
[13] = target: GST-Bfl-1 ΔTM [GST: P08515]; assay: Bfl-1 FPA plate, well D12: FITC-BH3 and GST-Bfl-1 without compound
[14] = target: GST-Bfl-1 ΔTM [GST: P08515]; assay: Bfl-1 FPA plate, well E12: FITC-BH3 and GST-Bfl-1 without compound
[15] = target: GST-Bfl-1 ΔTM [GST: P08515]; assay: Bfl-1 FPA plate, well F12: FITC-BH3 and GST-Bfl-1 without compound
[16] = target: GST-Bfl-1 ΔTM [GST: P08515]; assay: Bfl-1 FPA plate, well G12: FITC-BH3 and GST-Bfl-1 without compound
[17] = target: GST-Bfl-1 ΔTM [GST: P08515]; assay: Bfl-1 FPA plate, well H12: FITC-BH3 and GST-Bfl-1 without compound
[18] = target: T3, GST (glutathione S-transferase control protein) (UniProt P08515 1-218 = GST); assay: fluorescence polarization, 5 nM FITC-Bid BH3 with various concentrations of GST
T3 construct: Negative control protein; also called control GST protein
T3 sequence (P08515 whole entry): as above

[19] = target: GST-Bfl-1 ΔTM [GST: P08515]; assay: Bfl-1 FPA plate, well A12: FITC-BH3 and GST-Bfl-1 without compound (peptide-alone wells 43-52 mP)

Molecule: Cc1ccc(C)n1-c1ccc(Cl)cc1C(=O)O [Compound 5950160]
- HSP70 IC50 (Hill) (GST-Hsp70): high
- IC50 (GST-Bcl-B [1]): 0.942 µM
- Bcl-2 H Coefficient (GST-Bcl-2): 1.457
- Bcl-B H Coefficient (GST-Bcl-B [2]): 0.9279

Molecule: Cc1ccc(C)n1-c1ccc(Br)cc1C(=O)O [Compound 5954623]
- binding to GST by 1D-NMR (GST): did not bind to GST
- IC50 (GST-Bcl-B [1]): 15.6 µM and 16.3 µM
- EC50 (GST-Bcl-B [2]): 2.1 µM
- Bcl-B H Coefficient (GST-Bcl-B [2]): 1.233
- displacement of FITC-Puma-BH3 from GST-Bcl-B (GST-Bcl-B [3]): displaced FITC-Puma-BH3
- displacement of FITC-Bim-BH3 from GST-Bcl-B (GST-Bcl-B [4]): displaced FITC-Bim-BH3
- binding to GST-Bcl-B by 1D-NMR (GST-Bcl-B [5]): bound to GST-Bcl-B in a concentration dependent manner

Molecule: CC1=C(C#N)c2nc(N)c(C#N)c(C)c2/C1=C/c1ccc(-c2ccc(C(=O)O)c(Cl)c2)o1 [Compound 6025233]
- HSP70 IC50 (Hill) (GST-Hsp70): high
- IC50 (GST-Bcl-B [1]): 1.65 µM
- Bcl-2 H Coefficient (GST-Bcl-2): 3.081
- Bcl-B H Coefficient (GST-Bcl-B [2]): 1.206

Molecule: O=C(O[C@@H]1Cc2c(O)cc(O)cc2O[C@@H]1c1cc(O)c(O)c(O)c1)c1cc(O)c(O)c(O)c1 [EGCG, epigallecatechin]
- IC50 ([6]; in the absence of Bcl-B (without doxycycline)): 79 µM
- IC50 ([6]; in the presence of Bcl-B (with doxycycline)): ~93 µM
- displacement of FITC-TR3-r8 from GST-Bcl-B (GST-Bcl-B [2]; result in words): none of these reagents displaced FITC-TR3-r8

B1: FITC-TR3-9-r8 (peptide)
peptide: {FITC-Ahx}-FSRSLHSLLG[Ahx][dR][dR][dR][dR][dR][dR][dR][dR]
- fold increase of affinity in HβG buffer against PBS buffer [7]: 5 to 10 fold
- Kd [8]: < 0.1 µM
- Kd [9]: 0.02 µM
- Kd [10]: 0.02 µM

B2: FITC-Bid BH3 peptide (peptide)
peptide: {FITC-Ahx}-EDIIRNIARHLAQVGDSMDR-NH2
notes: also called FITC-BH3 peptide; FITC-BH3
- fluorescence polarization (mP) [11]: 160 mP
- fluorescence polarization (mP) [12]: 166 mP
- fluorescence polarization (mP) [13]: 158 mP
- fluorescence polarization (mP) [14]: 157 mP
- fluorescence polarization (mP) [15]: 163 mP
- fluorescence polarization (mP) [16]: 155 mP
- fluorescence polarization (mP) [17]: 163 mP
- binding result [18]: no binding
- fluorescence polarization (mP) [19]: 148 mP
